Measurements published in US20240228493A1, “LRRK2 INHIBITORS AND USES THEREOF” (NEURON23, ICN., priority 2022, published 2024).

Tests used:
human hepatocyte = experiment: Human hepatocyte stability, predicted hepatic clearance (h-Hept CL predict); assay type: in vitro ADME; conditions: human hepatocytes, 0.5×10^6 cells/mL, 1 μM, values without asterisk
How it was run: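 Cryopreserved human hepatocytes, 0.5×10^6 viable cells/mL in William's E/GlutaMAX, incubated with compound at 1 μM final, duplicates. Sampling at 0-120 min, LC/MS/MS parent loss gives t1/2, converted to CLint and scaled to predicted hepatic clearance (well-stirred model, fub assumed 1).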

[1] = biological target: T1, wt human LRRK2, catalytic site (Homo sapiens, UniProt Q5S007); experiment: TR-FRET LanthaScreen Tb Kinase Activity Assay, LRRK2 inhibition; assay type: biochemical; conditions: 2 nM wt human LRRK2, 400 nM peptide, 38 μM ATP
T1 construct: wt human LRRK2, catalytic site, catalytic site (ThermoFisher/USA); purchased ThermoFisher
How it was run: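 Fluorescein-ERM (LRRKtide) peptide (400 nM) phosphorylated by 2 nM wt human LRRK2 catalytic site with 38 μM ATP in 1× Kinase Buffer A, 120 min at room temperature after 15 min compound–kinase preincubation. EDTA plus Tb-anti-pLRRKtide antibody added, read after 60 min; inhibition from TR-FRET emission ratios.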

T1 sequence (Q5S007 1879-2138 limits assumed): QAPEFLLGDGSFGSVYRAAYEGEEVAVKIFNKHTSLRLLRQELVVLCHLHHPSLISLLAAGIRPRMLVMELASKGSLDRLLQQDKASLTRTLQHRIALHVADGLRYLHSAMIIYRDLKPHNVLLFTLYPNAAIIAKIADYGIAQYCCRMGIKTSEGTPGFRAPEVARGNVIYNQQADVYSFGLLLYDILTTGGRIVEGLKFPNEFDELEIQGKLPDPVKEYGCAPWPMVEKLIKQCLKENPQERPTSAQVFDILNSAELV

SMILES	hHep Cl (mL/min/kg) (human hepatocyte)	IC50 [1] [nM]
C[C@H]1CN(c2cc3c(cn2)NC(c2c(F)cccc2F)=Nc2c(Cl)n[nH]c2-3)C[C@H](C)O1 [Example 26, (2S,6S)-4-(3-chloro-5-(2,6-difluorophenyl)-1,6-dihydropyrazolo[4,3-d]pyrido[4,3-f][1,3]diazepin-9-yl)-2,6-dimethylmorpholine]	I (I (Intermediate Cl)”: 6.3≤Hep Cl (mL/min/kg)≤14.7)	< 1
Cc1n[nH]c2c1N=C(c1c(F)cccc1F)Nc1c-2cc(N2CCO[C@@H](C(C)(C)O)C2)nc1C (single isomer, unassigned) [Example 39]	L (L (Low Cl)”: Hep Cl (mL/min/kg)<6.3)	< 1
Cc1n[nH]c2c1N=C(c1c(F)cccc1F)Nc1cnc(N3CCS(=O)(=O)CC3)cc1-2 [Example 2, 4-[8-(2,6-difluorophenyl)-5-methyl-3,4,7,9,12-pentazatricyclo[8.4.0.02,6]tetradeca-1(10),2(6),4,7,11,13-hexaen-13-y1]-1,4-thiazinane 1,1-dioxide]	L (L (Low Cl)”: Hep Cl (mL/min/kg)<6.3)	< 1
Fc1cccc(F)c1C1=Nc2cn[nH]c2-c2cc(N3CCOCC3)ncc2N1 [Example 33, 4-[8-(2,6-difluorophenyl)-3,4,7,9,12-pentazatricyclo[8.4.0.02,6]tetradeca-1(10),2(6),4,7,11,13-hexaen-13-yl]morpholine]	L (L (Low Cl)”: Hep Cl (mL/min/kg)<6.3)	< 1
Cn1cc(-c2cc3c(cn2)NC(c2c(F)cccc2F)=Nc2c(Cl)n[nH]c2-3)cn1 [Example 54, 3-chloro-5-(2,6-difluorophenyl)-9-(1-methyl-1H-pyrazol-4-yl)-1,6-dihydropyrazolo[4,3-d]pyrido[4,3-f][1,3]diazepine]	I (I (Intermediate Cl)”: 6.3≤Hep Cl (mL/min/kg)≤14.7)	< 1
[2H]C1([2H])OC([2H])([2H])C([2H])([2H])N(c2cc3c(cn2)NC(c2c(F)cccc2F)=Nc2c(C)n[nH]c2-3)C1([2H])[2H] [Example 14, 2,2,3,3,5,5,6,6-octadeuterio-4-[8-(2,6-difluorophenyl)-5-methyl-3,4,7,9,12-pentazatricyclo[8.4.0.02,6]tetradeca-1(10),2(6),4,7,11,13-hexaen-13-yl]morpholine]	L (L (Low Cl)”: Hep Cl (mL/min/kg)<6.3)	< 1
Cc1n[nH]c2c1N=C(c1c(F)cccc1F)Nc1cnc(N3CCC[C@@H](C#N)C3)cc1-2 [Example 18, (3R)-1-[8-(2,6-difluorophenyl)-5-methyl-3,4,7,9,12-pentazatricyclo[8.4.0.02,6]tetradeca-1(10),2(6),4,7,11,13-hexaen-13-yl]piperidine-3-carbonitrile]	L (L (Low Cl)”: Hep Cl (mL/min/kg)<6.3)	< 1
Cc1n[nH]c2c1N=C(c1c(F)cccc1F)Nc1cnc(-c3cnn(CC(F)F)c3)cc1-2 [Example 28, 13-[1-(2,2-difluoroethyl)pyrazol-4-y1]-8-(2,6-difluorophenyl)-5-methyl-3,4,7,9,12-pentazatricyclo[8.4.0.02,6]tetradeca-1(10),2(6),4,7,11,13-hexaene]	L (L (Low Cl)”: Hep Cl (mL/min/kg)<6.3)	< 1
Fc1cccc(F)c1C1=Nc2c(Cl)n[nH]c2-c2cc(N3CCOCC3)ncc2N1 [Example 23, 4-(3-chloro-5-(2,6-difluorophenyl)-1,6-dihydropyrazolo[4,3-d]pyrido[4,3-f][1,3]diazepin-9-yl)morpholine]	L (L (Low Cl)”: Hep Cl (mL/min/kg)<6.3)	< 1
Cc1n[nH]c2c1N=C(c1c(F)cccc1F)Nc1c-2cc(N2CCO[C@@H](CO)C2)nc1C [Example 37, (R)-(4-(5-(2,6-difluorophenyl)-3,7-dimethyl-1,6-dihydropyrazolo[4,3-d]pyrido[4,3-f][1,3]diazepin-9-yl)morpholin-2-y1)methanol]	L (L (Low Cl)”: Hep Cl (mL/min/kg)<6.3)	< 1
Fc1cccc(F)c1C1=Nc2c(Cl)n[nH]c2-c2cc(N3CCOCC3)ccc2N1 (single isomer, unassigned) [Example 35, 4-(3-chloro-5-(2,6-difluorophenyl)-1,6-dihydrobenzo[d]pyrazolo[3,4-f][1,3]diazepin-9-y1)morpholine]	L (L (Low Cl)”: Hep Cl (mL/min/kg)<6.3)	< 1
Cc1n[nH]c2c1N=C(c1c(F)cccc1F)Nc1ccc(N3CCO[C@H](C(C)(C)O)C3)cc1-2 (single isomer, unassigned) [Example 36]	L (L (Low Cl)”: Hep Cl (mL/min/kg)<6.3)	1 to 100
Cc1n[nH]c2c1N=C(c1c(F)cccc1F)Nc1c-2cc(N2CCC(C)(O)CC2)nc1C [Example 41, 1-(5-(2,6-difluorophenyl)-3,7-dimethyl-1,6-dihydropyrazolo[4,3-d]pyrido[4,3-f][1,3]diazepin-9-yl)-4-methylpiperidin-4-ol]	I (I (Intermediate Cl)”: 6.3≤Hep Cl (mL/min/kg)≤14.7)	1 to 100
[2H]C([2H])([2H])c1n[nH]c2c1N=C(c1c(F)cccc1F)Nc1cnc(N3CCO[C@H](C)C3)cc1-2 [Example 27, (2R)-4-[8-(2,6-difluorophenyl)-5-(trideuteriomethyl)-3,4,7,9,12-pentazatricyclo[8.4.0.02,6]tetradeca-1(10),2(6),4,7,11,13-hexaen-13-y1]-2-methyl-morpholine]	L (L (Low Cl)”: Hep Cl (mL/min/kg)<6.3)	< 1
Cc1n[nH]c2c1N=C(c1c(F)cccc1F)Nc1cnc(N3C[C@@H]4C[C@H]3CO4)cc1-2 [Example 6, (1S,4S)-5-[8-(2,6-difluorophenyl)-5-methyl-3,4,7,9,12-pentazatricyclo[8.4.0.02,6]tetradeca-1(10),2(6),4,7,11,13-hexaen-13-y1]-2-oxa-5-azabicyclo[2.2.1]heptane]	L (L (Low Cl)”: Hep Cl (mL/min/kg)<6.3)	1 to 100
[2H]C1([2H])OC([2H])([2H])C([2H])([2H])N(c2cc3c(cn2)NC(c2c(F)cccc2F)=Nc2cn[nH]c2-3)C1([2H])[2H] [Example 20, 2,2,3,3,5,5,6,6-octadeuterio-4-[8-(2,6-difluorophenyl)-3,4,7,9,12-pentazatricyclo[8.4.0.02,6]tetradeca-1(10),2(6),4,7,11,13-hexaen-13-yl]morpholine]	L (L (Low Cl)”: Hep Cl (mL/min/kg)<6.3)	< 1
